The values below are quoted from earlier work in US6605304B1, “Silicate-containing powders providing controlled, sustained gas release” (Bernard Technologies, Inc., priority 1998, dated 2003).

Series [1] relates to mice.
Series [2] has as its system mold spores, bacteria and other microbiological contaminants.

Regarding `OCl` [hypochlorite], the mutagenic potential result in series [1] (mouse, in vivo, po) is “weak positive effect”. In the case of `[O][Cl+][O-]` [chlorine dioxide], in series [2], the “concentration that penetrates and destroys contaminants” value was “below one”. The “chromosomal aberrations or micronuclei in the bone marrow” value in series [1] (mice, subchronic and acute oral administration) is “failed to induce any chromosomal aberrations or increased numbers of micronuclei”.
